From ChEMBL document CHEMBL3885881, “DrugMatrix”

Organism: Rattus norvegicus
Assay: DrugMatrix - Regimen: Daily Repeat
Assay type: toxicity, organism-based, Sprague-Dawley
Set-up: regimen Daily Repeat, gender Male, age 6-8 weeks
Details: in vivo, po, route oral GAVAGE, vehicle .5 % CMC; for ABSOLUTE BASOPHIL / ABSOLUTE EOSINOPHIL / ABSOLUTE LYMPHOCYTE / ABSOLUTE MONOCYTE / ABSOLUTE SEGMENTED NEUTROPHIL / BASOPHIL / EOSINOPHIL / ERYTHROCYTE COUNT / HEMATOCRIT / HEMOGLOBIN / LEUKOCYTE COUNT / LYMPHOCYTE / MEAN CORPUSCULAR HEMOGLOBIN / MEAN CORPUSCULAR HEMOGLOBIN CONCENTRATION / MEAN CORPUSCULAR VOLUME / MONOCYTE / NEUTROPHIL / NUCLEATED RED BLOOD CELLS / PLATELET COUNT: tissue Blood; for ALANINE AMINOTRANSFERASE / ALBUMIN / ALKALINE PHOSPHATASE / ASPARTATE AMINOTRANSFERASE / BLOOD UREA NITROGEN / CARBON DIOXIDE / CHLORIDE / CHOLESTEROL / CREATINE PHOSPHOKINASE / CREATININE / GLUCOSE / LACTATE DEHYDROGENASE / LIPASE / PHOSPHORUS / POTASSIUM / SODIUM / TOTAL BILIRUBIN / TOTAL PROTEIN / URIC ACID: tissue Plasma
[1] = 100 mg/kg, 120 h, dose level Low, time 5 day
[2] = 1503 mg/kg, 72 h, dose level High, time 3 day
[3] = 1503 mg/kg, 120 h, dose level High, time 5 day

Cl.NC[C@H]1CC[C@H](C(=O)Oc2ccc(CCC(=O)O)cc2)CC1 [CETRAXATE HYDROCHLORIDE]
ABSOLUTE BASOPHIL [1]: 0 CELLS/uL
ABSOLUTE EOSINOPHIL [1]: 157.33 CELLS/uL
ABSOLUTE LYMPHOCYTE [1]: 16804.67 CELLS/uL
ABSOLUTE MONOCYTE [1]: 401.67 CELLS/uL
ABSOLUTE SEGMENTED NEUTROPHIL [1]: 1803 CELLS/uL
BASOPHIL [1]: 0%
EOSINOPHIL [1]: 0.67%
ERYTHROCYTE COUNT [1]: 5.83 x10E6/uL
HEMATOCRIT [1]: 37.17%
HEMOGLOBIN [1]: 13.9 G/DL
LEUKOCYTE COUNT [1]: 19.17 x10E3/uL
LYMPHOCYTE [1]: 88.33%
MEAN CORPUSCULAR HEMOGLOBIN [1]: 23.87 pg
MEAN CORPUSCULAR HEMOGLOBIN CONCENTRATION [1]: 37.4 G/DL
MEAN CORPUSCULAR VOLUME [1]: 63.73 fL
MONOCYTE [1]: 2%
NEUTROPHIL [1]: 9%
NUCLEATED RED BLOOD CELLS [1]: 0 /100WBC
PLATELET COUNT [1]: 1287.67 x10E3/uL
ALANINE AMINOTRANSFERASE [1]: 53.67 u/L
ALBUMIN [1]: 4.23 G/DL
ALKALINE PHOSPHATASE [1]: 376.33 u/L
ASPARTATE AMINOTRANSFERASE [1]: 93.67 u/L
BLOOD UREA NITROGEN [1]: 19.33 mg/dL
CARBON DIOXIDE [1]: 27 mmol/L
CHLORIDE [1]: 104.67 MEQ/L
CHOLESTEROL [1]: 78.67 mg/dL
CREATINE PHOSPHOKINASE [1]: 449.67 u/L
CREATININE [1]: 0.23 mg/dL
GLUCOSE [1]: 160.33 mg/dL
LACTATE DEHYDROGENASE [1]: 370.33 u/L
LIPASE [1]: 9.67 u/L
PHOSPHORUS [1]: 13.2 mg/dL
POTASSIUM [1]: 6.82 MEQ/L
SODIUM [1]: 143.93 MEQ/L
TOTAL BILIRUBIN [1]: 0.17 mg/dL
TOTAL PROTEIN [1]: 5.97 G/DL
URIC ACID [1]: 2.07 mg/dL
ABSOLUTE BASOPHIL [2]: 0 CELLS/uL
ABSOLUTE EOSINOPHIL [2]: 121 CELLS/uL
ABSOLUTE LYMPHOCYTE [2]: 13133.33 CELLS/uL
ABSOLUTE MONOCYTE [2]: 333 CELLS/uL
ABSOLUTE SEGMENTED NEUTROPHIL [2]: 979.33 CELLS/uL
BASOPHIL [2]: 0%
EOSINOPHIL [2]: 1%
ERYTHROCYTE COUNT [2]: 5.73 x10E6/uL
HEMATOCRIT [2]: 36.13%
HEMOGLOBIN [2]: 13.17 G/DL
LEUKOCYTE COUNT [2]: 14.57 x10E3/uL
LYMPHOCYTE [2]: 90%
MEAN CORPUSCULAR HEMOGLOBIN [2]: 23.03 pg
MEAN CORPUSCULAR HEMOGLOBIN CONCENTRATION [2]: 36.43 G/DL
MEAN CORPUSCULAR VOLUME [2]: 63.13 fL
MONOCYTE [2]: 2.33%
NEUTROPHIL [2]: 6.67%
NUCLEATED RED BLOOD CELLS [2]: 0.33 /100WBC
PLATELET COUNT [2]: 1198.67 x10E3/uL
ALANINE AMINOTRANSFERASE [2]: 68 u/L
ALBUMIN [2]: 4.1 G/DL
ALKALINE PHOSPHATASE [2]: 375.67 u/L
ASPARTATE AMINOTRANSFERASE [2]: 167.67 u/L
BLOOD UREA NITROGEN [2]: 17.67 mg/dL
CARBON DIOXIDE [2]: 25 mmol/L
CHLORIDE [2]: 101.33 MEQ/L
CHOLESTEROL [2]: 63.67 mg/dL
CREATINE PHOSPHOKINASE [2]: 4593 u/L
CREATININE [2]: 0.28 mg/dL
GLUCOSE [2]: 200 mg/dL
LACTATE DEHYDROGENASE [2]: 387 u/L
LIPASE [2]: 10.33 u/L
PHOSPHORUS [2]: 12.87 mg/dL
POTASSIUM [2]: 6.87 MEQ/L
SODIUM [2]: 143.37 MEQ/L
TOTAL BILIRUBIN [2]: 0.3 mg/dL
TOTAL PROTEIN [2]: 5.53 G/DL
URIC ACID [2]: 2.37 mg/dL
ABSOLUTE BASOPHIL [3]: 0 CELLS/uL
ABSOLUTE EOSINOPHIL [3]: 225.33 CELLS/uL
ABSOLUTE LYMPHOCYTE [3]: 13517.67 CELLS/uL
ABSOLUTE MONOCYTE [3]: 404.33 CELLS/uL
ABSOLUTE SEGMENTED NEUTROPHIL [3]: 1186 CELLS/uL
BASOPHIL [3]: 0%
EOSINOPHIL [3]: 1.33%
ERYTHROCYTE COUNT [3]: 6.38 x10E6/uL
HEMATOCRIT [3]: 39.27%
HEMOGLOBIN [3]: 14.57 G/DL
LEUKOCYTE COUNT [3]: 15.33 x10E3/uL
LYMPHOCYTE [3]: 88.33%
MEAN CORPUSCULAR HEMOGLOBIN [3]: 22.83 pg
MEAN CORPUSCULAR HEMOGLOBIN CONCENTRATION [3]: 37.13 G/DL
MEAN CORPUSCULAR VOLUME [3]: 61.57 fL
MONOCYTE [3]: 2.67%
NEUTROPHIL [3]: 7.67%
NUCLEATED RED BLOOD CELLS [3]: 0 /100WBC
PLATELET COUNT [3]: 1170.67 x10E3/uL
ALANINE AMINOTRANSFERASE [3]: 59 u/L
ALBUMIN [3]: 4.47 G/DL
ALKALINE PHOSPHATASE [3]: 424.33 u/L
ASPARTATE AMINOTRANSFERASE [3]: 93.33 u/L
BLOOD UREA NITROGEN [3]: 17 mg/dL
CARBON DIOXIDE [3]: 26.67 mmol/L
CHLORIDE [3]: 105.67 MEQ/L
CHOLESTEROL [3]: 58 mg/dL
CREATINE PHOSPHOKINASE [3]: 497 u/L
CREATININE [3]: 0.24 mg/dL
GLUCOSE [3]: 175.33 mg/dL
LACTATE DEHYDROGENASE [3]: 205.33 u/L
LIPASE [3]: 9 u/L
PHOSPHORUS [3]: 12.87 mg/dL
POTASSIUM [3]: 6.66 MEQ/L
SODIUM [3]: 144.8 MEQ/L
TOTAL BILIRUBIN [3]: 0.2 mg/dL
TOTAL PROTEIN [3]: 6.27 G/DL
URIC ACID [3]: 1.93 mg/dL
